Experiments:
Format in all cases: physicochemical
[1] = Solubility Evaluation 2: solubility of dopant compounds in toluene
Method: (§1) A hundred mg of each compound was placed in a sample pot and the toluene as the solvent was added until the compound was dissolved. The solubility in the toluene was obtained from an amount of the added toluene.

[2] = Solubility Evaluation 1: solubility of host compounds in toluene; conditions: for Solubility (%): in toluene, 100 mg compound, toluene added until dissolved
Method: Solubility Evaluation 1 was conducted by the following method.
as §1

[3] = Ink solution condition after a week (pot life); conditions: H10: ink of Example 28 with Compound H10 instead of H4
Method: (§2) Specifically, samples of a host compound and a dopant compound were blended in a weight ratio of 20:1 in a sample pot, to which a solvent and a viscosity control agent were added.
(§3) Table 5 and Table 6 each show a type of solvent, solid content (wt %), solubility (o: no insoluble matter visually observed, x: insoluble matter visually observed), viscosity and a solution condition after a week.

[4] = Ink solubility, insoluble matter visually observed; conditions: H10: ink of Example 28 with Compound H10 instead of H4
Method: as §2, §3

SMILES | Solubility (%) ([1]; Table 2) | Solubility (%) ([1]; Table 3) | further results
CCC(C)c1ccc(N(c2ccc(/C=C/c3ccc(/C=C/c4ccc(N(c5ccc(C(C)CC)cc5)c5ccc(C(C)CC)cc5)cc4)cc3)cc2)c2ccc(C(C)CC)cc2)cc1 (centres unmarked) [Compound D1] |  |  | Solubility (%) ([1]; Table 4): 0.5%
c1ccc(N(c2ccccc2)c2c3ccccc3c(N(c3ccccc3)c3ccccc3)c3ccccc23)cc1 [Compound D3, reference compound] |  |  | Solubility (%) ([1]; Table 4): <0.1%
Cc1ccc(N(c2ccc(C)cc2)c2ccc(/C=C/c3ccc(/C=C/c4ccc(N(c5ccc(C)cc5)c5ccc(C)cc5)cc4)cc3)cc2)cc1 [Compound D4, reference compound] |  |  | Solubility (%) ([1]; Table 4): <0.1%
c1ccc2cc(-c3ccc(-c4c5ccccc5c(-c5ccc(-c6cccc7ccccc67)cc5)c5ccccc45)cc3)ccc2c1 [Compound H1] |  |  | Solubility (%) [2]: 2.0%
c1cc(-c2ccc(-c3cccc4ccccc34)cc2)cc(-c2c3ccccc3c(-c3ccc(-c4cccc5ccccc45)cc3)c3ccccc23)c1 [Compound H2] |  |  | Solubility (%) [2]: 2.0%
c1ccc2cc(-c3ccc4cc(-c5c6ccccc6c(-c6ccc(-c7cccc8ccccc78)cc6)c6ccccc56)ccc4c3)ccc2c1 [Compound H3] |  |  | Solubility (%) [2]: 2.0%
c1ccc2cc(-c3c4ccccc4c(-c4ccc(-c5cccc6ccccc56)cc4)c4ccccc34)ccc2c1 [Compound H4] |  |  | Solubility (%) [2]: 5.0%
c1ccc(-c2cc(-c3ccc4ccccc4c3)cc(-c3c4ccccc4c(-c4ccc5ccccc5c4)c4ccccc34)c2)cc1 [Compound H5] |  |  | Solubility (%) [2]: 5.0%
c1cc(-c2ccc3ccccc3c2)cc(-c2c3ccccc3c(-c3cccc4ccccc34)c3ccccc23)c1 [Compound H6] |  |  | Solubility (%) [2]: 0.25%
c1cc(-c2ccc3ccccc3c2)cc(-c2c3ccccc3c(-c3ccc4cc(-c5ccc6ccccc6c5)ccc4c3)c3ccccc23)c1 [Compound H7] |  |  | Solubility (%) [2]: 0.25%
c1ccc(-c2ccc(-c3c4ccccc4c(-c4ccccc4)c4ccccc34)cc2)cc1 [Compound H8] |  |  | Solubility (%) [2]: 0.2%
c1ccc(-c2ccc(-c3ccccc3-c3c4ccccc4c(-c4c5ccccc5c(-c5ccccc5-c5ccc(-c6ccccc6)cc5)c5ccccc45)c4ccccc34)cc2)cc1 [Compound H9] |  |  | solubility in the toluene (in words) ([2]; host compounds): solubility capable of performing the thickness control of the films; Solubility (%) [2]: 1.4%
c1ccc(-c2ccccc2-c2ccc3c(-c4ccccc4)c4ccccc4c(-c4ccccc4)c3c2)cc1 [Compound H10] |  |  | solubility in toluene ([2]; host compounds): 5 wt %; precipitation within a week / pot life (in words) [3]: precipitation was not observed after a week; insoluble matter in the ink (in words) [4]: no solid matters left undissolved
CC(C)c1ccc2c(N(c3ccc(-c4ccccc4)cc3)c3ccc4ccccc4c3)c3cc(CC4CCCCC4)ccc3c(N(c3ccc(-c4ccccc4)cc3)c3ccc4ccccc4c3)c2c1 [EM136] | 0.5 |  | 
CCC(C)c1ccc(N(c2ccccc2)c2c3ccc(C(C)C)cc3c(N(c3ccccc3)c3ccc(C(C)CC)cc3)c3ccc(CC(C)(C)C)cc23)cc1 (centres unmarked) [EM137] | 1 |  | 
Cc1ccc(N(c2ccc(C)cc2)c2c3ccc(C4CCCCC4)cc3c(N(c3ccc(C)cc3)c3ccc(C)cc3)c3ccc(C(C)C)cc23)cc1 [EM138] | 0.5 |  | 
Cc1ccc(N(c2ccc(C)cc2)c2c3ccccc3c(N(c3ccc(C)cc3)c3ccc(C)cc3)c3cc(C(C)(C)C)ccc23)cc1 [EM139] | 0.5 |  | 
Cc1ccc(N(c2ccc(C(C)(C)C)cc2)c2c3ccccc3c(N(c3ccc(C)cc3)c3ccc(C(C)(C)C)cc3)c3cc(C(C)C)ccc23)cc1 [EM140] | 0.5 |  | 
Cc1ccc(N(c2ccc(C(C)C)cc2)c2c3ccccc3c(N(c3ccc(C)cc3)c3ccc(C(C)C)cc3)c3cc(C(C)(C)C)ccc23)cc1 [EM141] | 0.5 |  | 
CC(C)c1ccc(N(c2ccccc2)c2c3ccc(C(C)(C)C)cc3c(N(c3ccccc3)c3ccc(C(C)C)cc3)c3ccc(C(C)(C)C)cc23)cc1 [EM142] | 0.5 |  | 
Cc1ccc(N(c2ccc(C)cc2)c2c3ccc(C(C)(C)C)cc3c(N(c3ccc(C)cc3)c3ccc(C)cc3)c3ccc(C(C)(C)C)cc23)cc1 [EM143] | 0.5 |  | 

SMILES | Solubility (%) ([1]; Table 2) | Solubility (%) ([1]; Table 3) | further results
Cc1ccc(N(c2ccc(C(C)C)cc2)c2c3ccc(C(C)(C)C)cc3c(N(c3ccc(C)cc3)c3ccc(C(C)C)cc3)c3ccc(C(C)(C)C)cc23)cc1 [EM144] | 0.5 |  | 
Cc1ccc(N(c2ccc(C)c(C)c2)c2c3ccc(C(C)(C)C)cc3c(N(c3ccc(C)c(C)c3)c3ccc(C)c(C)c3)c3ccc(C(C)(C)C)cc23)cc1C [EM145] | 0.5 |  | 
CCC(C)c1ccc(N(c2ccc(-c3ccccc3)cc2)c2ccc(N(c3ccc(-c4ccccc4)cc3)c3ccc(C(C)CC)cc3)c3ccccc23)cc1 (centres unmarked) [EM191] |  | 1 | 
c1ccc(-c2cc(N(c3ccc(C4CCCCC4)cc3)c3cc4ccccc4c4ccccc34)c3cc(-c4ccccc4)cc(N(c4ccc(C5CCCCC5)cc4)c4cc5ccccc5c5ccccc45)c3c2)cc1 [EM192] |  | 1 | 
Cc1ccc(N(c2ccc(C(C)C)cc2)c2ccc3ccc4c(N(c5ccc(C)cc5)c5ccc(C(C)C)cc5)ccc5ccc2c3c54)cc1 [EM193] |  | 0.5 | 
CC(C)c1ccc(N(c2ccc3ccccc3c2)c2ccc3ccc4c(N(c5ccc(C(C)C)cc5)c5ccc6ccccc6c5)ccc5ccc2c3c54)cc1 [EM194] |  | 1 | 
Cc1cc(C)cc(N(c2ccc(C(C)C)cc2)c2ccc3ccc4c(N(c5ccc(C(C)C)cc5)c5cc(C)cc(C)c5)ccc5ccc2c3c54)c1 [EM195] |  | 0.5 | 
CC(C)c1ccc(N(c2ccc(C(C)C)cc2)c2ccc3ccc4c(N(c5ccc(C(C)C)cc5)c5ccc(C(C)C)cc5)ccc5ccc2c3c54)cc1 [EM196] |  | 1 | 
CC(C)c1ccc(N(c2ccc(C(C)(C)C)cc2)c2ccc3ccc4c(N(c5ccc(C(C)C)cc5)c5ccc(C(C)(C)C)cc5)ccc5ccc2c3c54)cc1 [EM197] |  | 1 | 
CC(C)c1ccc(N(c2ccc(C(C)C)cc2)c2c3ccccc3c(N(c3ccc(C(C)C)cc3)c3ccc(C(C)C)cc3)c3ccccc23)cc1 [EM204] |  | 0.5 | 
CC(C)c1ccc(N(c2ccc(C(C)(C)C)cc2)c2c3ccccc3c(N(c3ccc(C(C)C)cc3)c3ccc(C(C)(C)C)cc3)c3ccccc23)cc1 [EM205] |  | 0.5 | 
CCc1ccc(N(c2ccc(C(C)CC)cc2)c2c3ccccc3c(-c3c4ccccc4c(N(c4ccc(CC)cc4)c4ccc(C(C)CC)cc4)c4ccccc34)c3ccccc23)cc1 (centres unmarked) [EM206] |  | 0.5 | 
CC(C)c1ccc(N(c2cccc(-c3ccccc3)c2)c2c3ccccc3c(-c3c4ccccc4c(N(c4ccc(C(C)C)cc4)c4cccc(-c5ccccc5)c4)c4ccccc34)c3ccccc23)cc1 [EM207] |  | 0.5 | 
Cc1cc(C)cc(N(c2ccc(C(C)C)cc2)c2c3ccccc3c(-c3c4ccccc4c(N(c4ccc(C(C)C)cc4)c4cc(C)cc(C)c4)c4ccccc34)c3ccccc23)c1 [EM208] |  | 1 | 
Cc1ccc(N(c2ccc(C(C)C)cc2)c2c3ccccc3c(-c3c4ccccc4c(N(c4ccc(C)cc4)c4ccc(C(C)C)cc4)c4cc(C(C)(C)C)ccc34)c3ccc(C(C)(C)C)cc23)cc1 [EM209] |  | 0.5 | 
Cc1ccc(N(c2ccc(C(C)C)cc2)c2c3ccccc3c(N(c3ccc(C)cc3)c3ccc(C(C)C)cc3)c3c2ccc2ccccc23)cc1 [EM210] |  | 1 | 
Cc1ccc(N(c2ccc(C(C)C)cc2)c2c3ccccc3c(N(c3ccc(C(C)C)cc3)c3ccc(C(C)C)cc3)c3c2ccc2ccccc23)cc1 [EM211] |  | 1 | 
CC(C)c1ccc(N(c2ccc(C(C)C)cc2)c2cc3c4ccccc4c(N(c4ccc(C(C)C)cc4)c4ccc(C(C)C)cc4)cc3c3ccccc23)cc1 [EM212] |  | 1 | 
Cc1ccc(N(c2ccc(C(C)C)cc2)c2cc3c4ccccc4c(N(c4ccc(C)cc4)c4ccc(C(C)C)cc4)cc3c3ccccc23)cc1 [EM213] |  | 0.5 | 
CC(C)c1ccc(N(c2cccc(C(C)(C)C)c2)c2cc3c4ccccc4c(N(c4ccc(C(C)C)cc4)c4cccc(C(C)(C)C)c4)cc3c3ccccc23)cc1 [EM214] |  | 1 | 
Cc1cc(C)cc(N(c2ccc(C(C)C)cc2)c2cc3c4ccccc4c(N(c4ccc(C(C)C)cc4)c4cc(C)cc(C)c4)cc3c3ccccc23)c1 [EM215] |  | 1 | 

Second part, led by results:

Solubility (%) ([1]; Table 2) | SMILES | Solubility (%) ([1]; Table 3) | further results
0.5 | Cc1cccc(N(c2cccc(C(C)C)c2)c2c3ccc(C(C)(C)C)cc3c(N(c3cccc(C)c3)c3cccc(C(C)C)c3)c3ccc(C(C)(C)C)cc23)c1 [EM146] |  | 
1 | Cc1cccc(N(c2ccc(C)c(C)c2)c2c3ccc(C(C)(C)C)cc3c(N(c3cccc(C)c3)c3ccc(C)c(C)c3)c3ccc(C(C)(C)C)cc23)c1 [EM147] |  | 
0.5 | CC(C)(C)c1ccc2c(N(c3ccc4ccccc4c3)c3ccc4ccccc4c3)c3cc(C(C)(C)C)ccc3c(N(c3ccc4ccccc4c3)c3ccc4ccccc4c3)c2c1 [EM148] |  | 
0.5 | Cc1cccc(N(c2cccc(C)c2)c2c3ccc(C(C)C)cc3c(N(c3cccc(C)c3)c3cccc(C)c3)c3ccc(C(C)C)cc23)c1 [EM149] |  | 
0.5 | c1ccc(N(c2ccc3ccccc3c2)c2c3ccccc3c(N(c3ccccc3)c3ccc4ccccc4c3)c3cc(C4CCCCC4)ccc23)cc1 [EM174] |  | 
0.5 | Cc1cccc(N(c2cccc(C)c2)c2c3ccccc3c(N(c3cccc(C)c3)c3cccc(C)c3)c3cc(C4CC5CCC4C5)ccc23)c1 (centres unmarked) [EM175] |  | Solubility (%) ([1]; Table 4): 0.5%
0.5 | Cc1ccc(N(c2ccc(C(C)C)cc2)c2c3ccccc3c(N(c3ccc(C)cc3)c3ccc(C(C)C)cc3)c3cc(C45CC6CC(CC(C6)C4)C5)ccc23)cc1 [EM176] |  | Solubility (%) ([1]; Table 4): 0.5%
0.5 | CC(C)c1ccc(N(c2ccccc2)c2c3ccccc3c(N(c3ccccc3)c3ccc(C(C)C)cc3)c3cc(C45CC6CC(CC(C6)C4)C5)ccc23)cc1 [EM177] |  | Solubility (%) ([1]; Table 4): 0.5%

— US20080113101A1, “ORGANIC-ELECTROLUMINESCENCE-MATERIAL-CONTAINING SOLUTION, METHOD FOR FORMING THIN FILM OF ORGANIC ELECTROLUMINESCENCE MATERIAL, THIN FILM OF ORGANIC ELECTROLUMINESCENCE MATERIAL AND ORGANIC ELECTROLUMINESCENCE DEVICE” (Idemitsu Kosan Co., Ltd., priority 2006, published 2008)
